Entries after “also recorded” stand apart in the source; their conditions may differ.
Assays:
[1] = test system: ectopic human non-small-cell lung cancer and orthotopic MCF7 human breast tumors; settings: slow infusion for ~2 hours; cited from earlier work
[2] = as previously reported (44); cited from earlier work
fibrosarcoma mouse model = settings: cited from earlier work
tumors = settings: intra-tumoral injection; cited from earlier work
[3] = test system: human osteosarcoma xenografts; settings: collagenase (0.1%), cited from earlier work
H460 tumors = assay: Steady-state tissue GdDTPA concentration maps (T1 relaxation MRI) before and after collagenase; assay type: in vivo, female CD1-NU immunodeficient mice
Description: (§1) Collagenase catalyzes the degradation of collagen fibers. Changing the collagen microfibrillar network in tumors modulates the extracellular matrix and causes a decrease in IFP (10, 26). H460 tumors were monitored during infusion, in the dynamic period and at steady state 24 h before and ˜5 h after collagenase administration (0.4 mg/kg body w). […] Similarly, maps of transcapillary transfer due to pressure gradients, k^ΔP, and the profiles of this parameter across the tumor indicated a change, particularly in the tumor's central region, from a negative k^ΔP before collagenase to a null or positive k^ΔP after collagenase (FIG. 6).
(§2) Human NCI-H460 non small cell lung cancer (NSCLC) cells were cultivated and implanted into the flanks of female CD1-NU immunodeficient mice, as previously described (4). During the MRI experiments, mice were anaesthetized by inhalation of 1% isofluorane (Medeva Pharmaceuticals, Inc., Rochester, N.Y., USA) in an O2/N2O (3:7) mixture applied through a nose cone (4). Collagenase (Sigma-Aldrich, St Louis, Mo., USA) treatment was applied by i.v. injection of 0.4 mg/kg body w of this enzyme (1 mg=161 collagen digestion units).
(§3) Tissue contrast agent concentration at steady state infusion was determined from measurements of T1 relaxation rates before, and at 90 min after the start of the intravenous infusion of the contrast agent as previously described (4). For the dynamic measurements 3-dimensional T1. weighted gradient echo images were recorded using TErTR=2.1/18.3 ms and flip angle=45°, 47 s temporal resolution. After recording 5 pre-contrast images, slow infusion of GdDTPA (gadopentate-dimeglumine, Schering, Berlin, Germany) was initiated at a rate of 0.011 mmol/min/kg body wt. for a total time of 120 min.
Tissue GdDTPA concentration (CGd) at steady state was calculated at pixel resolution from the T1 measurements, as previously described (4).

[4] = test system: H460 human non-small-cell lung cancer tumors; assay: Dynamic contrast-enhanced MRI during slow GdDTPA infusion: vascular parameters before and after collagenase; assay type: in vivo, female CD1-NU immunodeficient mice
Description: as §1, §2
MRI scanning was performed on a 4.7-T Biospec spectrometer (Bruker Biospin, Rheinstetten, Germany) employing the same spatial resolution of 0.2×0.2×1 mm^3 in all protocols. Delineation of the boundary of the tumors and determination of their volume was achieved by analyzing images recorded with a 2-dimensional fast spin echo sequence using […] as previously described (40).
as §3
Analysis of the dynamic data collected during the slow infusion was performed at pixel resolution, on the basis of a model proposed by Jain et al (1, 35, 41-43). This model takes into account the transfer of solutes through the capillary walls and within the interstitial spaces by both diffusion in the direction of the concentration gradients and convection in the direction of the pressure gradients. Relying on few assumptions, which are described herein two differential equations were solved. The first equation applies to regions with low IFP were positive pressure gradients favors net transfer of contrast agent from the capillaries into the tissue (see equation 1) and the second one applies to intra tumoral regions with high IFP where a pressure gradients in the interstitium favors outward convection of the contrast agent and reduces the net delivery to these regions (see equation 2).
Where Ct is the contrast agent concentration in the entire tissue, Dinf is the contrast agent-infusion rate, k^trans the transcapillary transfer constant, k^ΔP the pressure gradients derived transfer rate which also depends on the shape, morphology, and the hydraulic conductivity of the tissue (1). νe represents the extracellular extravascular (EES) volume fraction, and νp the intravascular volume fraction. The parameters ai, and mi (i=1,2) represent the average plasma pharmacokinetic amplitude and time constant parameters, respectivelyt calculated to be a1=2.94 kg/l, a2=4.85 kg/l, m1=0.73 min^−1, and m2=0.075 min^−1 as previously reported (44).
A nonlinear “best fit” algorithm (40) was applied to fit the time courses to Equations 1 and 2, calculating the proportion of variability, R^2, per pixel for each fitting. […]

[5] = H460 tumors, within hours after administration
[6] = steady state infusion, ~5 h after collagenase 0.4 mg/kg
[7] = inside H460 tumors (excluding the rim), 5 h after collagenase administration

With O=C([O-])CN(CCN(CC(=O)[O-])CC(=O)O)CCN(CC(=O)[O-])CC(=O)O.[Gd+3] [GdDTPA, gadolinium-diethylenetriaminepentaacetic acid] as the compound, how does the “steady-state tissue GdDTPA concentration further inside the tumor” value [1] read?
The value was “low or null values”.

What about the “steady-state tissue GdDTPA concentration in the tumor periphery” value [1] of the same compound?
The value was ~0.5 mmol/L.

What about the “steady-state tissue GdDTPA concentration outside the tumor boundaries” value [1] of the same compound?
The value was ~1 mmol/L.

And the “a1, average plasma pharmacokinetic amplitude” value [2]?
The value was 2.94 kg/L.

What about the “a2, average plasma pharmacokinetic amplitude” value [2] of the same compound?
Its value is 4.85 kg/L.

What about the “m1, plasma time constant parameter” value [2] of the same compound?
Its value is 0.73 min⁻¹.

And the “m2, plasma time constant parameter” value [2]?
The value was 0.075 min⁻¹.

Which “plasma volume fraction and fractional efflux rate from the interstitial space to the plasma” value (fibrosarcoma mouse model; accompanying the decline in IFP) does the source give for O=C1CCC(N2C(=O)c3ccccc3C2=O)C(=O)N1 (stereo not drawn) [thalidomide] here?
The value was “increased”.

And the “effect on IFP” value (fibrosarcoma mouse model; fibrosarcoma mouse model)?
Its value is “decline”.

For collagenase, which “effect on IFP” value (tumors) is on record?
The value was “reduce IFP”.

And the “effect on uptake of antibodies” value (tumors)?
The value was “increase the uptake”.

What about the “effect on IFP” value ([3]; within hours) of the same compound?
Its value is “reduced IFP”.

What about the “increase in the tumor uptake and distribution of a monoclonal antibody” value [3] of the same compound?
Its value is 2 fold.

What about the “steady state tissue GdDTPA concentration in the internal parts after collagenase treatment” value (H460 tumors; H460 tumors) of the same compound?
The value was “significantly increased”.

And the “effect on IFP” value (H460 tumors; [5])?
The value was “reduces IFP”.

What about the “effect on uptake of a contrast agent” value (H460 tumors; [5]) of the same compound?
Its value is “increases the uptake”.

And the “outward convection after collagenase treatment” value (H460 tumors; [6])?
Its value is “vanished”.

And the “transfer of the contrast agent in the interior regions of the tumor after collagenase” value (H460 tumors; [6])?
Its value is “markedly increased”.

What about the “all other vascular parameters derived from the analysis, change after collagenase” value ([4]; H460 tumors, ~5 h after collagenase 0.4 mg/kg) of the same compound?
Its value is “did not change significantly”.

And the “change of pressure dependent transfer constant in the tumors' central/internal regions after collagenase” value ([4]; H460 tumors, from negative to positive values)?
Its value is “significant increase; also recorded: significant change”.

What about the “k^ΔP in the internal parts of the tumors following collagenase treatment” value ([4]; increased from (−2.6±3.7)*10^−3, paired t-test, p=0.016) of the same compound?
Its value is 8.6±8.9 *10^−3.

And the “K^trans*10^−3” value [4, 7]?
Its value is 3.7 ± 3.4 *10^−3.

What about the “[…]e (extracellular extravascular volume fraction)” value [4, 7] of the same compound?
Its value is 0.24 ± 0.06.

And the “[…]p (intravascular volume fraction)” value [4, 7]?
Its value is 0.053 ± 0.027.

And the “K^□p*10^−3 (pressure dependent transfer constant)” value ([4]; inside H460 tumors (excluding the rim), 5 h after collagenase administration, 0.4 mg/kg i.v., mean ± SD)?
Its value is 8.6 ± 8.9 *10^−3.

Which “effect on IFP” value (tumors) does the source give for hyaluronidase here?
Its value is “reduce IFP”.

What about the “effect on uptake of antibodies” value (tumors) of the same compound?
Its value is “increase the uptake”.
